Experiments:
[1] = tested on: B6 male mice; experiment: Renal I/R injury in mice; format: in vivo, mouse; conditions: given 30 min prior to I/R injury, 24 h post-ischemia, vs DMSO; not shown
Procedure: Leukadherins reduce renal I/R injury. To evaluate use of leukadherins in the I/R injury induced changes in the kidney function of WT mice, we performed another experiment. B6 male mice (8-12 weeks of age) were anesthetized and kept on a heating pad to keep them at a constant 37° C. temperature. Next, an abdominal incision was made and the renal pedicles were occluded bilaterally with a nontraumatic vascular clamp for 30 minutes, the clamp then removed and the surgical incision was closed. Sham surgery was performed with an identical procedure but without application of the clamps. Renal I/R injury was assessed at 24 h post-ischemia by measuring the serum creatinine levels. Mouse sera from the tail incision was used for the analyses of sCr (and BUN levels (not shown)) using manual kits (Stanbio Laboratory).

[2] = tested on: K562 CD11b/CD18 cells; experiment: Cell viability assay (MTS); format: cell-based; conditions: 24 h; concentrations as high as 50 μM
Procedure: Cell viability assay was performed as described. Briefly, K562 CD11b/CD18 cells (10,000/well) were incubated in 96 well plates (Corning, Corning, N.Y.) with increasing amounts of indicated compound for 24 h. The number of viable cells after 24 h was determined by using MTS reagent according to manufacturers protocol (Promega, Madison, Wis.) and using Spectramax M5 spectrophotometer (Molecular Devices) for reading of the assay plates. Data presented is representative of at least two independent experiments.

[3] = molecular target: T1, CD11b A-domain (αA-domain) (Homo sapiens, UniProt P11215); experiment: αA-domain ligand-binding assay (GST-αA-domain to immobilized Fg); conditions: to level of activating mutant I316G
T1 construct: protein fragments spanning residues Gly^111-Gly^321 (321WT); made in house; host or cells: Escherichia coli
Excerpt: Purification of recombinant CD11b A-Domain (.Alpha.A-Domain). Recombinant human aA-domains were constructed and purified according to published protocols. […] The aA-domain in its active conformation was generated by replacing Ile^316 with Gly (1316G [55]) using forward primer 5′-[…]-3′ (SEQ ID NO: 3) and reverse primer 5′-[…]-3′ (SEQ ID NO: 4). The insert was digested with BamHI and SmaI and ligated into pGEX-2T vector also digested with BamHI and SmaI. All constructs were confirmed by direct DNA sequencing. All recombinant proteins were expressed as glutathione S-transferase (GST) fusion proteins in Escherichia coli and purified by affinity chromatography (Glutathione-beads, Sigma) following manufacturer's instructions. Purified protein preparations were dialyzed against 20 mm Tris-HCl, pH 7.5, 150 mm NaCl (Tris-buffered saline) and subsequently concentrated using Amicon-10 columns (Millipore) and stored at −80° C. […]
Maxisorp 96-well plates were coated with Fg (1 μg/well) in 10 mM PBS, pH 7.4 overnight and blocked with 1% bovine serum albumin in PBS. […] Subsequently, the amount of bound protein was determined by incubating with anti-GST antibody conjugated to horseradish peroxidase (GE, Piscataway, N.J.) (1:2000 dilution) for 1 hr. […] Absorbance was read using Spectromax M5 spectrophotometer (Molecular Devices, Sunnyvale, Calif.). […]

T1 sequence (P11215 127-337): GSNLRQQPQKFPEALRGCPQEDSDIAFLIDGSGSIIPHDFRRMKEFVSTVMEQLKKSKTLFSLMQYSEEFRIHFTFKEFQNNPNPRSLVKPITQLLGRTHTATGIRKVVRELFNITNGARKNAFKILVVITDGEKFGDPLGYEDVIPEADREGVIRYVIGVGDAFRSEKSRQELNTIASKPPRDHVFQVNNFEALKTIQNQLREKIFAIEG

## O=C(O)c1ccc(-c2ccc(/C=C3\SC(=S)N(Cc4ccccc4)C3=O)o2)cc1 [LA1]
[1]
  serum creatinine (sCr) levels: significant reduction
[2]
  in vitro cytotoxicity to K562 cells: no cytotoxicity
[3]
  binding of the WT αA to the immobilized ligand: increased binding
